# According to patent US6696427B1, “Use of bisphosphonates for the prevention and treatment of infectious processes” (Jomaa Pharmaka GmbH, priority 1998, dated 2004):
# Test system: γδ-T cells
# Test: activatability of γδ-T cells in mononuclear cells isolated from blood of treated test subjects
# Format: in vivo, human
# Protocol: […] After the third infusion, a blood sample was taken from the subjects. The mononuclear cells were isolated from the blood. The activatability of the γδ-T cells was then tested. A full description is published in Jomaa et al. FEMS Immunol. Med. Microbiol. September 1999; 25(4); 371-8.
# In contrast, cells from control subjects could be activated.
SMILES,"γδ-T cell activation by antigens obtained from microorganisms (test subjects, 1 mg per treatment, protocol from Example 1)","γδ-T cell activation by antigens obtained from microorganisms (healthy test subjects, infusion of 90 mg at fortnightly intervals, blood sample after the third infusion, isolated mononuclear cells)"
"CCCCCN(C)CCC(O)(P(=O)(O)O)P(=O)(O)O [ibandronic acid, 3-methylpentylamino-1-hydroxypropylidene-1,1-bisphosphonic acid]",no γδ-T cell activation,
"NCCC(O)(P(=O)(O)O)P(=O)(O)O [pamidronic acid, 3-amino-1-hydroxypropylidene-1,1-bisphosphonic acid]",,no γδ-T cell activation
